Laboratory results from ChEMBL document CHEMBL1138490, “Gamma-aminobutyric acid amides of nortriptyline and fluoxetine display improved pain suppressing activity” (2009).
Activity calls are given as the source filed them. The rule behind the calls is not given here.

How the values were obtained:
Mus musculus [1] = assay: Antinociceptive activity in BALB/c mouse assessed as paw withdrawal latency at 0.4 mg/kg, po after 2 to 4 hrs by hot plate method; assay type: functional, organism-based; set-up: dose 0.4 mg/kg
Mus musculus [2] = assay: Anxiolytic activity in BALB/c mouse assessed as velocity at equimolar oral dose relative to 10 mg/kg fluoxetine after 90 mins by open-field test (RVb= 7.07+/-0.51 cm/s); assay type: functional
Mus musculus [3] = assay: Anxiolytic activity in BALB/c mouse assessed as distance moved at equimolar oral dose relative to 10 mg/kg fluoxetine after 90 mins by open-field test (RVb= 8485+/-610 cm); assay type: functional
Mus musculus [4] = assay: Anxiolytic activity in BALB/c mouse assessed as immobility at equimolar oral dose relative to 10 mg/kg fluoxetine after 90 mins by open-field test (RVb= 458.4+/-41 s); assay type: functional
Mus musculus [5] = assay: Antinociceptive activity against formalin-induced neurogenic pain in BALB/c mouse assessed paw licking, biting or shaking during at 10 mg/kg, po administered 2 hrs before formalin challenge measured relative to control; assay type: functional, organism-based; set-up: dose 10 mg/kg
Mus musculus [6] = assay: Anxiolytic activity in BALB/c mouse assessed as distance moved at equimolar oral dose relative to 20 mg/kg fluoxetine after 90 mins by open-field test (RVb= 8485+/-610 cm); assay type: functional
Mus musculus [7] = assay: Antinociceptive activity in BALB/c mouse assessed as […] at 20 to 40 mg/kg, po equimolar dose of nortriptyline after 240 mins by hot plate method; assay type: functional, organism-based
Mus musculus [8] = assay: Anxiolytic activity in BALB/c mouse assessed as distance moved at equimolar oral dose relative to 5 mg/kg fluoxetine after 90 mins by open-field test (RVb= 8485+/-610 cm); assay type: functional
Mus musculus [9] = assay: Antinociceptive activity against formalin-induced neurogenic pain in BALB/c mouse assessed paw licking, biting or shaking at to 30 mg/kg, po equimolar dose of fluoxetine administered 2 hrs before formalin challenge measured relative to control; assay type: functional, organism-based; set-up: dose 30 mg/kg
Mus musculus [10] = assay: Antinociceptive activity in BALB/c mouse assessed as increase in paw withdrawal latency time at 10 mg/kg, po daily measured after 3 to 5 hrs on day 1 on day 1 to 11; assay type: functional, organism-based; set-up: dose 10 mg/kg
Mus musculus [11] = assay: Antinociceptive activity in BALB/c mouse assessed as paw withdrawal latency at 0.4 mg/kg, po equimolar dose of nortriptyline after 2 to 4 hrs by hot plate method; assay type: functional, organism-based; set-up: dose 0.4 mg/kg
Mus musculus [12] = assay: Antinociceptive activity in BALB/c mouse assessed as increase in paw withdrawal latency time at 10 mg/kg, po equimolar dose of fluoxetine daily measured after 3 to 5 hrs on day 1 to 11; assay type: functional, organism-based; set-up: dose 10 mg/kg
Mus musculus [13] = assay: Anxiolytic activity in BALB/c mouse assessed as velocity at equimolar oral dose relative to 20 mg/kg fluoxetine after 90 mins by open-field test (RVb= 7.07+/-0.51 cm/s); assay type: functional
Mus musculus [14] = assay: Anxiolytic activity in BALB/c mouse assessed as immobility at equimolar oral dose relative to 5 mg/kg fluoxetine after 90 mins by open-field test (RVb= 458.4+/-41 s); assay type: functional
Mus musculus [15] = assay: Antinociceptive activity against formalin-induced neurogenic pain in BALB/c mouse assessed paw licking, biting or shaking at 30 mg/kg, po administered 2 hrs before formalin challenge measured relative to control; assay type: functional, organism-based; set-up: dose 30 mg/kg
Mus musculus [16] = assay: Anxiolytic activity in BALB/c mouse assessed as velocity at equimolar oral dose relative to 5 mg/kg fluoxetine after 90 mins by open-field test (RVb= 7.07+/-0.51 cm/s); assay type: functional
Mus musculus [17] = assay: Anxiolytic activity in BALB/c mouse assessed as immobility at equimolar oral dose relative to 20 mg/kg fluoxetine after 90 mins by open-field test (RVb= 458.4+/-41 s); assay type: functional
Mus musculus [18] = assay: Antinociceptive activity in BALB/c mouse assessed as […] at 10 mg/kg, po equimolar dose of nortriptyline after 240 mins by hot plate method; assay type: functional, organism-based; set-up: dose 10 mg/kg
Mus musculus [19] = assay: Antinociceptive activity against formalin-induced neurogenic pain in BALB/c mouse assessed paw licking, biting or shaking during at 10 mg/kg, po equimolar oral dose fluoxetine administered 2 hrs before formalin challenge measured relative to control; assay type: functional, organism-based; set-up: dose 10 mg/kg
Rattus norvegicus [20] = assay: Antiinflammatory activity against gamma carrageenan-induced paw edema in Wistar rat assessed as reduction in paw volume at 50 mg/kg, ip administered 2 hrs before carrageenan challenge measured after 4 hrs relative to control; assay type: functional, organism-based; set-up: dose 50 mg/kg
Mus musculus [21] = assay: Antiinflammatory activity against formalin-induced BALB/c mouse skin assessed as reduction in TNFalpha level at to 0.5 mg/kg, po; assay type: functional, organism-based; set-up: dose 0.5 mg/kg
Rattus norvegicus [22] = assay: Antiinflammatory activity against gamma carrageenan-induced paw edema in Wistar rat assessed as reduction in paw volume at 50 mg/kg, ip administered 2 hrs before carrageenan challenge measured after 24 hrs relative to control; assay type: functional, organism-based; set-up: dose 50 mg/kg
Mus musculus [23] = assay: Antiinflammatory activity against formalin-induced BALB/c mouse skin assessed as reduction in TNFalpha level at 50 mg/kg, ip; assay type: functional, organism-based; set-up: dose 50 mg/kg
Rattus norvegicus [24] = assay: Antiinflammatory activity against gamma carrageenan-induced paw edema in Wistar rat assessed as paw volume at 50 mg/kg, ip administered 2 to 4 hrs before carrageenan challenge relative to control; assay type: functional, organism-based; set-up: dose 50 mg/kg

Question: With `CN(CCC(Oc1ccc(C(F)(F)F)cc1)c1ccccc1)C(=O)CCCN.Cl` (centres undefined) as the molecule, how does the Activity (Mus musculus [1]) read?
Answer: Its Activity is “Active”.

Question: What about the Activity (Mus musculus [2]) of the same molecule?
Answer: The Activity was 6.67 cm/s.

Question: What about the Activity (Mus musculus [3]) of the same molecule?
Answer: Its Activity is 8003 cm.

Question: What about the Activity (Mus musculus [4]) of the same molecule?
Answer: Its Activity is 536.3 s.

Question: What about the Activity (Mus musculus [5]) of the same molecule?
Answer: Its Activity is “Active”.

Question: And the Activity (Mus musculus [6])?
Answer: The Activity was 6462 cm.

Question: What about the Activity (Mus musculus [7]) of the same molecule?
Answer: The Activity was “Active”.

Question: What about the Activity (Mus musculus [8]) of the same molecule?
Answer: Its Activity is 7767 cm.

Question: And the Activity (Mus musculus [9])?
Answer: Its Activity is “Active”.

Question: And the Activity (Mus musculus [10])?
Answer: Its Activity is “Active”.

Question: What about the Activity (Mus musculus [11]) of the same molecule?
Answer: The Activity was “Active”.

Question: And the Activity (Mus musculus [12])?
Answer: Its Activity is “Active”.

Question: What about the Activity (Mus musculus [13]) of the same molecule?
Answer: Its Activity is 5.39 cm/s.

Question: What about the Activity (Mus musculus [14]) of the same molecule?
Answer: Its Activity is 501.5 s.

Question: What about the Activity (Mus musculus [15]) of the same molecule?
Answer: The Activity was “Active”.

Question: And the Activity (Mus musculus [16])?
Answer: The Activity was 6.47 cm/s.

Question: What about the Activity (Mus musculus [17]) of the same molecule?
Answer: The Activity was 639.9 s.

Question: And the Activity (Mus musculus [18])?
Answer: The Activity was “Active”.

Question: And the Activity (Mus musculus [19])?
Answer: Its Activity is “Active”.

Question: Which results are given for `NCC1(CC(=O)O)CCCCC1`?
Answer: Activity (Rattus norvegicus [20]): inactive; Activity (Mus musculus [21]): Active; Activity (Rattus norvegicus [22]): inactive; Activity (Mus musculus [23]): Active; Activity (Rattus norvegicus [24]): Active
